This note sets out measurements from patent US10933077B2, “TLR4 inhibitors for the treatment of human infectious and inflammatory disorders” (UNIVERSITY OF PITTSBURGH—OF THE COMMONWEALTH SYSTEM OF …, priority 2010, dated 2021).

For assay [1], the system named is LPS-induced NFkB activation. The assay is described as follows: NFkB-luciferase reporter mice assay (LPS-induced endotoxemia). The class given is in vivo. Conditions: LPS 2 mg/kg plus compound 1 mg/kg i.p. The protocol: Compound preparation and delivery. All 65 identified compounds were received in solid form and stored at 4° C. until use. Stock solutions of each compound were made by dissolving the appropriate amount of each compound in dimethyl sulfoxide (DMSO) to yield a concentration of 10 mM. Immediately prior to injection into experimental animals, the compounds were diluted to an experimental concentration of 100 uM in phosphate-buffered saline (PBS). Total concentration of DMSO in the final diluted drug was 1%. Compounds were closely examined to insure that no precipitate formed prior to injection and were stored on ice until injection. All compounds were given via intraperitoneal (i.p.) injection in a total volume of 200 ul using a 1 cc syringe and 27 gauge needle. In all experiments listed below, the compounds were delivered to the experimental mice 30 minutes prior to injection with lipopolysaccharide (LPS) to induce endotoxemia. Control animals not receiving compound received 1% DMSO dissolved in PBS. Following drug injection, the mice were observed closely in their cages for signs of immediate toxicity or adverse reaction to the drug, including but not limited to piloerection, tachypnea, bleeding, abnormal or aggressive behavior, signs of altered mental status, and level of activity.
Induction of endotoxemia. All mice were housed and cared for at the Rangos Research Center, Children's Hospital of Pittsburgh (Pittsburgh, Pa.). All experiments were approved by the Children's Hospital of Pittsburgh Animal Care Committee and by the Institutional Review Board of the University of Pittsburgh. Swiss Webster (CFW) and NFkB-luciferase reporter mice were obtained from The Jackson Laboratory. Throughout the course of all experiments, mice were housed 4 per cage with access to food, water, and standard bedding. Endotoxemia was induced in all experiments by i.p. injection of LPS (Escherichia coli 0111:B4 purified by gel filtration chromatography, >99% pure, Sigma-Aldrich) at a dose of 2 mg/kg for 6 hours. At the end of each experiment, all animals were euthanized by CO2 hypoxia and cervical dislocation.
NFkB-luciferase reporter mice assay. NFkB-luciferase reporter mice, in which the […], were subjected to endotoxemia with or without pretreatment with experimental compounds. The experimental compounds treated by this assay were compounds 1-6, with compounds 1-3 tested first and compounds 4-6 tested later. For both experiments, the mice were 6 weeks old on the date of the experiment. […] After whole body imaging, an additional injection of luciferin is given and animals were euthanized, organs were harvested, and the extent of NFkB activation within various tissues was further analyzed by an additional luminescence image of the individual organs. […]
(In general: In a reporter assay the amount or activity of a reporter protein is the signal.)

Assay [2] relates to iNOS mRNA. Kind of assay: CFW-NEC mouse model (formula feeding), iNOS mRNA levels. The class given is in vivo. The following applies: 1 mg/kg, i.p., once daily for the first four days of the five day model; relative to RPLO. From the text:
(§1) Inducible nitric oxide synthase (iNOS) is associated with necrotizing enterocolitis (NEC) in human infants. In a second set of experiments, the CFW-NEC mouse model system for NEC was used to evaluate the effect of various compounds from TABLES 1 and 2 above on iNOS mRNA levels. A model system for NEC was induced in newborn mouse pups by formula feeding, where control animals were breast-fed (Sodhi et al., 2010, Gastroenterol. 138(1):185-196; Richardson et al., 2010, Gastroenterol. 139(3):904-917). […] Note that RPLO stands for 505 ribosomal subunit protein L15, an acknowledged housekeeping gene, which means that it is a constitutive gene expressed at relatively constant levels by all cells and is thus used as a reference for comparing other genes which may vary under experimental conditions. In this same model system, levels of TLR4 mRNA levels were also evaluated. […] In contrast, the level of TLR4 was not increased in FF animals treated with C34 (1 mg/kg, i.p. once daily for the first four days of the five day model) and indeed mRNA levels were 30 percent below normal (see FIG. 14).

Another assay concerns TLR4 mRNA. The assay is described as follows: CFW-NEC mouse model (formula feeding), TLR4 mRNA levels. It counts as in vivo. Conditions: 1 mg/kg, i.p. once daily for the first four days of the five day model.
Description: as §1

The next assay deals with TNFα mRNA. Kind of assay: Human NEC tissue explants treated with LPS, TNFα mRNA. It counts as cell-based. The following applies: C34 10 uM, 30 minutes pretreatment; LPS 25 ug/ml, 37° C., 3 hours. The protocol: (§2) The effect of C34 was then tested on explants of human NEC tissue. These explants were obtained from human infants suffering from NEC and were prepared from NEC-affected portions of the intestine. When explants were treated with LPS (25 ug/ml, 37° C., 3 hours) the level of TNFα mRNA (FIG. 12) and iNOS mRNA (FIG. 13) increased precipitously.

For assay [3], the system named is iNOS mRNA. The assay is described as follows: Human NEC tissue explants treated with LPS, iNOS mRNA. The class given is cell-based. The following applies: C34 10 uM, 30 minutes pretreatment; LPS 25 ug/ml, 37° C., 3 hours. The protocol: as §2
Assay [4] in a line: Murine hemorrhagic shock (H/S) model, serum AST and ALT (liver damage). Conditions: 1 mg/kg, i.p. divided in two doses (30 minutes prior to H/S and immediately prior to resuscitation); versus PBS. It counts as in vivo, mice. The protocol:
An experiment was performed to test the effect of TLR4 inhibitors and C34 in particular on the tissue damage associated with hemmorhagic shock. A murine model was used in which, under sterile conditions and anesthesia induced using i.p. sodium pentobarbital (20 mg/kg), a left groin exploration was performed, and the left femoral artery was cannulated with tapered polyethylene (PE)-10 tubing and connected to a blood pressure transducer for continuous mean arterial pressure (MAP) monitoring for the duration of the experiment (6 h) as described in Sodhi, et al., 2011, Am. J. Physiol. Gastrointest. Liver Physiol. 300(5):G862-G873. To induce hemorrhagic shock, blood was withdrawn to allow the mean arterial pressure to drop to 25 mmHg over 5 minutes, and the blood pressure was maintained at this level for 150 min. The mice were then resuscitated over 10 min with lactated Ringer's solution. Sham-operated mice underwent anesthesia and femoral cannulation only. In this model system, the extent of liver damage is reflected in increased serum levels of aspartate aminotransferase (AST) and alanine transaminase (ALT).

As to `CC(=O)NC1C(OC(C)C)OC(COC(C)=O)C(OC(C)=O)C1OC(C)=O` (centres unmarked) [Compound 34, isopropyl 3,4,6-tri-O-acetyl-2-(acetylamino)-2-deoxyhexopyranoside], the “NFκB signalling (luciferase imaging)” value in assay [1] is listed as “reduced NFκB signalling”. In the assay on iNOS mRNA [2], the “increase of iNOS mRNA level in formula-fed (FF) pups” value was “almost eliminated”. Also, the “level of TLR4 mRNA in FF animals” value with TLR4 mRNA was “not increased”. Moreover, the “TLR4 mRNA levels below normal” value in the assay on TLR4 mRNA (FF animals) worked out at 30%. In addition, in the assay with TNFα mRNA, the “LPS-induced increase of TNFα mRNA” value is recorded as “substantially reduced”. Besides, the “LPS-induced increase of iNOS mRNA” value with iNOS mRNA [3] is “substantially reduced”. Besides, in assay [4], the “increase in serum ALT in H/S animals” value is “inhibited the increases” and the “increase in serum AST in H/S animals” value is reported as “inhibited the increases in AST”.
